The text below walks through data of US20200069648A1, “HALOALLYLAMINE PYRAZOLE DERIVATIVE INHIBITORS OF LYSYL OXIDASES AND USES THEREOF” (Pharmaxis Ltd., priority 2017, published 2020).

For one test, the target named is T1, Recombinant human MAO-B (Homo sapiens, UniProt P27338).
T1 construct: purchased Sigma Aldrich
T1 sequence (P27338 1-520): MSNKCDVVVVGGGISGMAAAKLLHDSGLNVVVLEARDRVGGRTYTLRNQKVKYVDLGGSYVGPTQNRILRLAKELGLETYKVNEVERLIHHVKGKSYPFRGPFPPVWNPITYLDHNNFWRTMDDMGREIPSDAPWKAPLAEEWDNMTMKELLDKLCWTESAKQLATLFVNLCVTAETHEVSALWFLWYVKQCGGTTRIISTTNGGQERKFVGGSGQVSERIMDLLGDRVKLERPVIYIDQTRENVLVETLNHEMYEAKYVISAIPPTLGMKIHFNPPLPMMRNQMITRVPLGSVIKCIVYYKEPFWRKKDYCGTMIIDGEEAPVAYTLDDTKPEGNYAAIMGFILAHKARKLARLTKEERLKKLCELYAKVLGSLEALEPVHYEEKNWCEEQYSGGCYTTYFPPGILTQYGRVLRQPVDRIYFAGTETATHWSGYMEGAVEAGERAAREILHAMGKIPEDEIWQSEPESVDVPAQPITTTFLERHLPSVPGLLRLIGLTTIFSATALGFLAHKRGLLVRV
As to the kind of experiment: Human recombinant MAO-B inhibition. The test is classed as biochemical. Particulars: benzylamine 100 μM. The method, then:
Method to Determine the Ability of Compounds of Formula I to Inhibit Human Recombinant MAO-B
The specificity of the compounds of this invention was tested by determining their ability to inhibit MAO-B activities in vitro. Recombinant human MAO-B (0.06 mg/mL; Sigma Aldrich) was used as source of MAO-B enzyme activities. The assay was performed in a similar way as for human SSAO/VAP-1 (Example 46) except, the substrate benzylamine was used at 100 μM.

The target in a further test is T2, Human LOXL2 (Homo sapiens, UniProt Q9Y4K0).
T2 sequence (Q9Y4K0 26-774): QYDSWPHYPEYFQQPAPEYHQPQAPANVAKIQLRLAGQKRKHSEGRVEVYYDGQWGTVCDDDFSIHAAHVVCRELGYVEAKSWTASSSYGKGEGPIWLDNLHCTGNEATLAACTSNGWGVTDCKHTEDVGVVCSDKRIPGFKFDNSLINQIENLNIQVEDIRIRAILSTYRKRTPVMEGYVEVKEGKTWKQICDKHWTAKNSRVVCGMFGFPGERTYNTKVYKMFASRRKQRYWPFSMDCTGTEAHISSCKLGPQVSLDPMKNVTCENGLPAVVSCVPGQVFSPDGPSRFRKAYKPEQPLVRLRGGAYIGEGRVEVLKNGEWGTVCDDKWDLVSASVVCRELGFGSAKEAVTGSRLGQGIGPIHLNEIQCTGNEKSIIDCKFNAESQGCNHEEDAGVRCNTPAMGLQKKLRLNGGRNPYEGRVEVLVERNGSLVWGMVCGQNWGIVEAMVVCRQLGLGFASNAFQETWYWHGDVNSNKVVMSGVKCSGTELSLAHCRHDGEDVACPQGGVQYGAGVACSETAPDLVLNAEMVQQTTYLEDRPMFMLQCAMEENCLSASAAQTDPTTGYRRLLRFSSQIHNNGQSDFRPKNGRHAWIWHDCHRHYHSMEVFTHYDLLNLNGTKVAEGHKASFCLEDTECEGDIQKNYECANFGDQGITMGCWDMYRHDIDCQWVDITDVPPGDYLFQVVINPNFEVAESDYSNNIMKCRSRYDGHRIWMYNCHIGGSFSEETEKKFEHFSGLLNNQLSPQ
Kind of test: LOXL2 amine oxidase inhibition, peroxidase-coupled Amplex Red assay. The test is classed as biochemical. Particulars: 30 min preincubation at 37° C., putrescine substrate. Summed up: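 Enzyme preincubated 30 min at 37 °C with compound (11-point curve) in 1.2 M urea, 50 mM borate pH 8.2 plus 1 μM mofegiline and 0.5 mM pargyline; putrescine at twice KM (10 mM for LOXL2), Amplex Red and HRP added. Fluorescence (565/590 nm) read every 2.5 min for 30 min; IC50 from kinetic slopes.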

The test system of test [1] is CCl4 induced liver fibrosis. As to the kind of experiment: CCl4 induced liver fibrosis model. The format is in vivo. Particulars: mice, CCl4 i.p. twice per week for 6 weeks; 0.1-100 mg/Kg; compared with vehicle-treated group. Here is the method: An analysis of the use of LOXL2 inhibitors to treat inflammatory/fibrotic diseases is performed through the use of a CCl4 induced liver fibrosis model. Liver injury is frequently followed by complete parenchymal regeneration due to regenerative potency of hepatocytes. Continuous liver injury due to the administration of CCl4 leads to extracellular matrix accumulation, accompanied by recurrent hepatocyte necrosis, inflammation, and regenerative processes, causing liver fibrosis and consequently liver cirrhosis (see Natsume, M., et al., Attenuated liver fibrosis and depressed serum albumin levels in carbon tetrachloride-treated IL-6-deficient mice. J. Leukoc. Biol., 1999, 66, 601-608 also See Yao, Q, Y., et al. Inhibition by curcumin of multiple sites of the transforming growth factor-beta1 signalling pathway ameliorates the progression of liver fibrosis induced by carbon tetrachloride in rats. BMC Complement Altern Med. 2012 Sep. 16; 12(1):156.).
Mice are injected intraperitoneally with CCl4 (i.p.) 1 ml/kg 25% CCl4 in olive oil, twice per week for a total period of 6 weeks. Compound 15 is given 0.1-100 mg/Kg throughout the period of the experimental procedure or only 3 weeks after CCl4 administration and then throughout the entire study.

pIC50: −log10 of the molar value. Counter-ions that a name gives are not always drawn. Some results are limits rather than exact numbers.

Take `Cc1nn(C/C(F)=C/CN)c(C)c1Cc1ccc(C(=O)N(C)C)cc1` [Compound 14, (Z)-4-((1-(4-amino-2-fluorobut-2-en-1-yl)-3,5-dimethyl-1H-pyrazol-4-yl)methyl)-N,N-dimethylbenzamide hydrochloride]: the figures for the pIC50 at Recombinant human MAO-B and on Human LOXL2 were below 4.52 and above 5.00, respectively.
The matching figures for `Cc1nn(C/C(F)=C/CN)c(C(=O)O)c1Cc1ccc(S(=O)(=O)N(C)C)cc1` [Compound 30, (Z)-1-(4-amino-2-fluorobut-2-enyl)-4-(4-(N,N-dimethylsulfamoyl)benzyl)-3-methyl-1H-pyrazole-5-carboxylic acid hydrochloride]: below 4.52 and above 6.00.
The matching figures for `Cc1nn(C/C(F)=C/CN)c(C)c1Cc1ccc(S(C)(=O)=O)c(Cl)c1` [Compound 16, (Z)-4-(4-(3-chloro-4-(methylsulfonyl)benzyl)-3,5-dimethyl-1H-pyrazol-1-yl)-3-fluorobut-2-en-1-amine hydrochloride]: below 4.52 and above 6.00.
Taken in the same sequence, the figures for `Cc1nn(C/C(F)=C/CN)c(C)c1Cc1ccc(S(C)(=O)=O)cc1Cl` [Compound 12, (Z)-4-(4-(2-chloro-4-(methylsulfonyl)benzyl)-3,5-dimethyl-1H-pyrazol-1-yl)-3-fluorobut-2-en-1-amine hydrochloride] were below 4.52 and above 6.00.
With `Cc1nn(C/C(F)=C/CN)c(C)c1Cc1ccc(S(=O)(=O)N(C)C)c(C(F)(F)F)c1` [Compound 18, (Z)-4-((1-(4-amino-2-fluorobut-2-en-1-yl)-3,5-dimethyl-1H-pyrazol-4-yl)methyl)-N,N-dimethyl-2-(trifluoromethyl)benzenesulfonamide hydrochloride], the results for the pIC50 at Recombinant human MAO-B and against Human LOXL2 were below 4.52 and above 6.00, respectively.
Consider `Cc1nn(C/C(F)=C/CN)c(C)c1Cc1ccc(S(=O)(=O)N(C)C)c(OC(F)(F)F)c1` [Compound 17, (Z)-4-((1-(4-amino-2-fluorobut-2-en-1-yl)-3,5-dimethyl-1H-pyrazol-4-yl)methyl)-N,N-dimethyl-2-(trifluoromethoxy)benzenesulfonamide hydrochloride], for which the values for the pIC50 at Recombinant human MAO-B and against Human LOXL2 were below 4.52 and above 6.00, respectively.
Taken in the same sequence, the figures for `Cc1nn(C/C(F)=C/CN)c(C)c1Cc1cc(F)c(S(=O)(=O)N(C)C)cc1F` [Compound 19, (Z)-4-((1-(4-amino-2-fluorobut-2-en-1-yl)-3,5-dimethyl-1H-pyrazol-4-yl)methyl)-2,5-difluoro-N,N-dimethylbenzenesulfonamide hydrochloride] were below 4.52 and above 6.00.
As for `Cc1nn(C/C(F)=C/CN)c(C)c1Cc1ccc(S(=O)(=O)N(C)C)c(Cl)c1` [Compound 15, (Z)-4-((1-(4-amino-2-fluorobut-2-en-1-yl)-3,5-dimethyl-1H-pyrazol-4-yl)methyl)-2-chloro-N,N-dimethylbenzenesulfonamide hydrochloride], in test [1], the “reduction in liver fibrosis by liver sirius red staining with quantification” value is given as “up to 50%”. In addition, the negative logarithm of the IC50 (pIC50) was below 4.52 on Recombinant human MAO-B and above 6.00 at Human LOXL2.
With `Cc1nn(C/C(F)=C/CN)c(C(=O)N(C)C)c1Cc1ccc(S(=O)(=O)N(C)C)cc1` [Compound 29, (Z)-1-(4-amino-2-fluorobut-2-enyl)-4-(4-(N,N-dimethylsulfamoyl)benzyl)-N,N,3-trimethyl-1H-pyrazole-5-carboxamide hydrochloride], the pIC50 at Recombinant human MAO-B was below 4.52; against Human LOXL2, above 6.00.
As to `Cc1nn(C/C(F)=C/CN)c(C)c1Cc1cccc(S(=O)(=O)N(C)C)c1` [Compound 5, (Z)-3-((1-(4-amino-2-fluorobut-2-en-1-yl)-3,5-dimethyl-1H-pyrazol-4-yl)methyl)-N,N-dimethyl benzenesulfonamide hydrochloride], the negative logarithm of the IC50 (pIC50) is below 4.52 on Recombinant human MAO-B and above 6.00 at Human LOXL2.
Take `CCOC(=O)c1nn(C/C(F)=C/CN)c(C)c1Cc1ccc(S(=O)(=O)N(C)C)cc1` [Compound 28, (Z)-ethyl 1-(4-amino-2-fluorobut-2-enyl)-4-(4-(N,N-dimethylsulfamoyl)benzyl)-5-methyl-1H-pyrazole-3-carboxylate hydrochloride]: the values for the pIC50 at Recombinant human MAO-B and on Human LOXL2 were below 4.52 and above 6.00, respectively.
The matching figures for `CNS(=O)(=O)c1cc(F)c(Cn2nc(C)c(C/C(F)=C/CN)c2C)cc1F` [Compound 26, (Z)-4-((4-(4-amino-2-fluorobut-2-en-1-yl)-3,5-dimethyl-1H-pyrazol-1-yl)methyl)-2,5-difluoro-N-methylbenzenesulfonamide hydrochloride]: below 4.52 and above 6.00.
Taken in the same sequence, the figures for `Cc1nn(C/C(F)=C/CN)c(C)c1Cc1ccc(S(=O)(=O)N(C)C(C)C)cc1` [Compound 8, (Z)-4-((1-(4-amino-2-fluorobut-2-en-1-yl)-3,5-dimethyl-1H-pyrazol-4-yl)methyl)-N-isopropyl-N-methylbenzenesulfonamide hydrochloride] were below 4.52 and above 6.00.
On to `Cc1nn(Cc2cc(F)c(S(=O)(=O)N(C)C)cc2F)c(C)c1C/C(F)=C/CN` [Compound 25, (Z)-4-((4-(4-amino-2-fluorobut-2-en-1-yl)-3,5-dimethyl-1H-pyrazol-1-yl)methyl)-2,5-difluoro-N,N-dimethylbenzenesulfonamide hydrochloride], for which the negative-log IC50 (pIC50) on Recombinant human MAO-B is below 4.52; against Human LOXL2 it was above 6.00.
Taken in the same sequence, the figures for `Cc1nn(C/C(F)=C/CN)c(C(C)O)c1Cc1ccc(S(=O)(=O)N(C)C)c(Cl)c1` (single isomer, unassigned) [Compound 52, (Z)-4-((1-(4-amino-2-fluorobut-2-en-1-yl)-5-(1-hydroxyethyl)-3-methyl-1H-pyrazol-4-yl)methyl)-2-chloro-N,N-dimethylbenzenesulfonamide hydrochloride] were below 4.52 and above 6.00.
For the molecule `Cc1nn(C/C(F)=C/CN)c(C(C)O)c1Cc1ccc(S(=O)(=O)N(C)C)c(Cl)c1` (single isomer, unassigned) [Compound 53, (Z)-4-((1-(4-amino-2-fluorobut-2-en-1-yl)-5-(1-hydroxyethyl)-3-methyl-1H-pyrazol-4-yl)methyl)-2-chloro-N,N-dimethylbenzenesulfonamide hydrochloride], the pIC50 at Recombinant human MAO-B is below 4.52; against Human LOXL2 it was above 6.00.
The matching figures for `CNS(=O)(=O)c1ccc(Cn2nc(C)c(C/C(F)=C/CN)c2C)c(C(F)(F)F)c1` [Compound 23, (Z)-4-((4-(4-amino-2-fluorobut-2-en-1-yl)-3,5-dimethyl-1H-pyrazol-1-yl)methyl)-N-methyl-3-(trifluoromethyl)benzenesulfonamide hydrochloride]: below 4.52 and above 6.00.
